Consider seven compounds from PubChem BioAssay (NCI).

Some test systems named below: HL-60(TB) leukemia; HOP-62 NSCLC; HS 578T breast; NCI-H522 lung; NCI/ADR-RES ovarian; OVCAR-4 ovarian; SF-539 CNS; SK-MEL-5 melanoma; T-47D breast; UACC-62 melanoma.
Common to all, as to experiment: DTP human tumour cell line panel, 48 h

“And” between values parts separate entries of the source, which are not always exact repeats. Equal entries are not always repeated.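 Values below derive from 48-hour exposures of cells grown in 96-well plates, with endpoints linearly interpolated between the two concentrations bracketing the appropriate inhibition level. GI50 is the concentration that inhibits growth by half. TGI: concentration producing complete growth inhibition.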

With `COc1cc(OC)c(OC)cc1/C=C/c1ccccn1`, the TGI in the assay on HL-60(TB) leukemia, in the assay on HOP-62 NSCLC, with HS 578T breast, with NCI-H522 lung, with NCI/ADR-RES ovarian and in the assay with OVCAR-4 ovarian was more than 10 µM throughout. Moreover, the TGI in the assay with SF-539 CNS, in the assay on SK-MEL-5 melanoma, in the assay on T-47D breast and with UACC-62 melanoma was more than 10 µM each time.

Turning to `CCCCCOC(=O)c1c(C)[nH]c(/C=C2\N=C(c3ccc[nH]3)C=C2OC)c1C`, the 50% growth inhibitory concentration (GI50) (in general, the concentration at which growth is held to half of that of the control) is 0.0263 µM with HL-60(TB) leukemia; 0.0436 µM in the assay with HOP-62 NSCLC; 0.0211 µM in the assay on HS 578T breast; 0.0392 µM in the assay on NCI-H522 lung; 0.0391 µM in the assay with NCI/ADR-RES ovarian; 0.0559 µM in the assay on OVCAR-4 ovarian. Also, the GI50 with SF-539 CNS is 0.0306 µM; in the assay with SK-MEL-5 melanoma it was 0.0234 µM; in the assay with T-47D breast it was 0.0369 µM; with UACC-62 melanoma, 0.0213 µM. For the same compound, the TGI (as a rule, the concentration at which net growth stops) came out at 0.281 µM in the assay on HL-60(TB) leukemia; 0.937 µM with HOP-62 NSCLC; 0.172 µM in the assay with HS 578T breast; 1.27 µM with NCI-H522 lung; 1.33 µM in the assay with NCI/ADR-RES ovarian; 2.39 µM with OVCAR-4 ovarian. Besides, the total growth inhibition concentration (TGI) in the assay with SF-539 CNS was 0.725 µM; in the assay with SK-MEL-5 melanoma, 0.0726 µM; in the assay with T-47D breast, 1.37 µM; in the assay with UACC-62 melanoma, 0.0491 µM.

As to `OC(c1ccccc1)c1c(-c2ccccc2)[nH]c(-c2ccccc2)c1C(O)c1ccccc1` (stereo not given), the concentration for total growth inhibition (TGI) with HL-60(TB) leukemia came out at 4.24 µM; in the assay on HOP-62 NSCLC, 17.5 µM; in the assay with HS 578T breast, 18.9 µM; in the assay with NCI-H522 lung, 11.5 µM; in the assay with NCI/ADR-RES ovarian, 8.02 µM; in the assay with OVCAR-4 ovarian it was 4.82 µM. Besides, the concentration for total growth inhibition (TGI) with SF-539 CNS is 6.94 µM; with SK-MEL-5 melanoma, 5.27 µM; with T-47D breast it was 40.4 µM; in the assay on UACC-62 melanoma it was 7.97 µM.

On to `CCOc1ccc2nc3cc(N)ccc3c(N)c2c1`, for which the GI50 was 19.8 µM and 20.2 µM in the assay on HL-60(TB) leukemia; 1.49 µM and 1.58 µM in the assay on HOP-62 NSCLC; 1.29 µM and 1.03 µM with HS 578T breast; 1.8 µM and 1.69 µM in the assay on NCI-H522 lung; 9.69 µM and 24.6 µM with NCI/ADR-RES ovarian; 2.3 µM and 3.38 µM with OVCAR-4 ovarian. The GI50 is 2.66 µM and 1.79 µM with SF-539 CNS; 3.31 µM and 3.03 µM with SK-MEL-5 melanoma; 0.336 µM and 0.385 µM in the assay with T-47D breast; 4.7 µM and 2.56 µM with UACC-62 melanoma. In addition, the TGI with HL-60(TB) leukemia is 42.2 µM and 43.7 µM; with HOP-62 NSCLC, 6.84 µM and 6.49 µM; with HS 578T breast, 9.46 µM and 4.83 µM; with NCI-H522 lung it was 4.54 µM and 5.1 µM; with NCI/ADR-RES ovarian, more than 100 µM; in the assay on OVCAR-4 ovarian it was 5.45 µM and 13 µM. Besides, the TGI in the assay on SF-539 CNS was 13.6 µM and 6.38 µM; with SK-MEL-5 melanoma, 13.3 µM and 12.8 µM; in the assay on T-47D breast, 1.57 µM and 2.4 µM; in the assay with UACC-62 melanoma, 18.5 µM and 12 µM.

Take `CCN(Cc1ccccc1)c1ccc(/C=C2\COc3ccccc3C2=O)cc1`: the GI50 is 221 µM in the assay with HL-60(TB) leukemia; more than 1000 µM with HOP-62 NSCLC; more than 1000 µM with HS 578T breast; 156 µM with NCI-H522 lung; 351 µM in the assay with NCI/ADR-RES ovarian; 761 µM in the assay on OVCAR-4 ovarian. The GI50 in the assay on SF-539 CNS is more than 1000 µM; in the assay on SK-MEL-5 melanoma, 398 µM; with T-47D breast it was 213 µM; with UACC-62 melanoma, 304 µM. Moreover, the TGI in the assay on HL-60(TB) leukemia, with HOP-62 NSCLC, in the assay with HS 578T breast, with NCI-H522 lung, with NCI/ADR-RES ovarian and in the assay on OVCAR-4 ovarian was more than 1000 µM throughout. Further, the TGI in the assay on SF-539 CNS, in the assay on SK-MEL-5 melanoma, with T-47D breast and with UACC-62 melanoma was more than 1000 µM each time.

For the compound `O=C(Nc1ccc(Nc2ccc3c(c2)C(=O)c2ccccc2C3=O)c2c1C(=O)c1ccccc1C2=O)c1ccccc1`, the TGI is more than 100 µM with HL-60(TB) leukemia; more than 100 µM with HOP-62 NSCLC; more than 91.9 µM in the assay with HS 578T breast; more than 42.1 µM with NCI-H522 lung; more than 100 µM in the assay on NCI/ADR-RES ovarian; more than 100 µM in the assay on OVCAR-4 ovarian. Also, the concentration for total growth inhibition (TGI) in the assay with SF-539 CNS, in the assay on SK-MEL-5 melanoma, in the assay with T-47D breast and in the assay with UACC-62 melanoma was more than 100 µM throughout.

Regarding `C=CC(=O)N1CCN([C@@H](CC2CC2)c2ccc([C@H](C)Nc3ncc4c(n3)N(CC)C(=O)OC4)cc2)CC1`, the GI50 with HL-60(TB) leukemia is 2.28 µM; with HOP-62 NSCLC it was 12.4 µM; with HS 578T breast it was 9.19 µM; in the assay with NCI-H522 lung it was 10.2 µM; in the assay with NCI/ADR-RES ovarian, 21.5 µM; in the assay on OVCAR-4 ovarian, 12.3 µM. Also, the GI50 was 11.7 µM with SF-539 CNS, 15.4 µM in the assay on SK-MEL-5 melanoma, 14.8 µM in the assay with T-47D breast and 12.1 µM in the assay with UACC-62 melanoma. The TGI is 12.7 µM in the assay on HL-60(TB) leukemia; 32.9 µM in the assay with HOP-62 NSCLC; 55.6 µM in the assay with HS 578T breast; 26.1 µM in the assay with NCI-H522 lung; more than 100 µM in the assay on NCI/ADR-RES ovarian; 28.4 µM in the assay on OVCAR-4 ovarian. The TGI in the assay with SF-539 CNS worked out at 24.3 µM; in the assay on SK-MEL-5 melanoma, 30 µM; in the assay on T-47D breast, 61.3 µM; with UACC-62 melanoma, 26.1 µM.
